Assay results published in patent US20100323442A1, “MODULATION OF THE PHOSPHATIDYLINOSITOL-3-KINASE PATHWAY IN THE DIFFERENTIATION OF HUMAN EMBRYONIC STEM CELLS” (priority 2006, published 2010).
Entries after “also recorded” stand apart in the source; their conditions may differ.

Experiments:
[1] = tested on: Human ESCs (CyT203); test: Differentiation of hESCs in growth factor conditions, marker gene expression by QPCR; assay type: cell-based; conditions: for expression of brachyury: RPMI, 0% FBS day 1, 0.2% day 2, 2% days 3-5, activin A 100 ng/ml at 36 and 48 hours; for differentiation of hESCs to initial cell fate, as indicated by marker expression: cultures lacking insulin, follistatin 100 ng/ml, noggin 200 ng/ml, BMP4 100 ng/ml, 5 days
Procedure: Human ESCs (CyT203) were grown in growth media on a mouse fibroblast feeder layer. On the day differentiation began, cultures were washed once with phosphate buffered saline (PBS) and then placed into differentiation media. Differentiation media consisted of RPMI with penicillin/streptomycin and Glutamax containing 0% FBS on the first day, 0.2% v/v FBS on the second day and 2% v/v FBS on days 3-5. Growth factors were used at the following concentrations: activin A at 100 ng/ml, follistatin at 100 ng/ml, noggin at 200 ng/ml, BMP4 at 100 ng/ml, and SU5402 at 5 μM. Individual cultures received the same growth factor cocktail with or without the addition of 10 μg/ml human recombinant insulin for all 5 days of differentiation as indicated. Samples were taken at daily intervals for analysis of gene expression using QPCR to monitor the differentiation of the populations in response to the different growth factor treatments. At the conclusion of the treatment phase the cells were fixed in 4% paraformaldehyde for 15 min at room temperature and reacted with antibodies to SOX17 or PAX6. Human embryonic stem cells (CyT203) were grown in growth media on a mouse fibroblast feeder layer. On the day differentiation began, cultures were washed once with phosphate buffered saline (PBS) and then placed into differentiation media. Differentiation media consisted of RPMI with penicillin/streptomycin and Glutamax containing 0% FBS on the first day, 0.2% v/v FBS on the second day and 2% v/v FBS on days 3-5. Cultures were treated with SU5402 at 5 μM with or without the addition of human recombinant insulin at 10 μg/ml. Individual cultures received the same growth factor cocktail for all 5 days of differentiation as indicated. Samples were taken at daily intervals for analysis of gene expression using QPCR to monitor the differentiation of the populations in response to the different growth factor treatments. At the conclusion of the treatment phase the cells were fixed in 4% paraformaldehyde for 15 min at room temperature and reacted with antibodies to SOX17, OCT4 or PAX6.

[2] = tested on: Human ESCs (CyT203); test: Immunofluorescence of treated hESCs with antibodies to SOX17, OCT4 or PAX6; assay type: cell-based
Procedure: Human ESCs (CyT203) were grown in growth media on a mouse fibroblast feeder layer. On the day differentiation began, cultures were washed once with phosphate buffered saline (PBS) and then placed into differentiation media. Differentiation media consisted of RPMI with penicillin/streptomycin and Glutamax containing 0% FBS on the first day, 0.2% v/v FBS on the second day and 2% v/v FBS on days 3-5. Growth factors were used at the following concentrations: activin A at 100 ng/ml, follistatin at 100 ng/ml, noggin at 200 ng/ml, BMP4 at 100 ng/ml, and SU5402 at 5 μM. Individual cultures received the same growth factor cocktail with or without the addition of 10 μg/ml human recombinant insulin for all 5 days of differentiation as indicated. Samples were taken at daily intervals for analysis of gene expression using QPCR to monitor the differentiation of the populations in response to the different growth factor treatments. At the conclusion of the treatment phase the cells were fixed in 4% paraformaldehyde for 15 min at room temperature and reacted with antibodies to SOX17 or PAX6.
Human embryonic stem cells (CyT203) were grown in growth media on a mouse fibroblast feeder layer. On the day differentiation began, cultures were washed once with phosphate buffered saline (PBS) and then placed into differentiation media. Differentiation media consisted of RPMI with penicillin/streptomycin and Glutamax containing 0% FBS on the first day, 0.2% v/v FBS on the second day and 2% v/v FBS on days 3-5. Cultures were treated with SU5402 at 5 μM with or without the addition of human recombinant insulin at 10 μg/ml. Individual cultures received the same growth factor cocktail for all 5 days of differentiation as indicated. Samples were taken at daily intervals for analysis of gene expression using QPCR to monitor the differentiation of the populations in response to the different growth factor treatments. At the conclusion of the treatment phase the cells were fixed in 4% paraformaldehyde for 15 min at room temperature and reacted with antibodies to SOX17, OCT4 or PAX6.

[3] = QPCR, activin A 100 ng/ml, SU5402 5 μM
[4] = QPCR, insulin 10 μg/ml added to growth factor treatment
[5] = QPCR, no insulin, continued presence of activin A 100 ng/ml

## Cc1c[nH]c(/C=C2\C(=O)Nc3ccccc32)c1CCC(=O)O [SU5402, reference compound]
[1]; QPCR, no insulin, SU5402 5 μM
  expression of brachyury: elevated expression
  expression of CDX2: elevated expression
  expression of SOX1: elevated expression
  expression of SOX7: elevated expression
[1]; [3]
  differentiation of hESCs to initial cell fate, as indicated by marker expression: make all available fate choices; also recorded: made all available fate choices

## insulin: human recombinant insulin, 10 μg/ml, signals through the PI-3-kinase pathway
[2]; high levels of insulin present
  OCT4-positive cell numbers: maintenance
  number of SOX17-positive cells in response to activin A treatment: decrease
[2]; insulin in the media
  number of PAX6-positive cells in response to noggin/follistatin treatment: reduced
[1]; 10 μg/ml human recombinant insulin added to the growth factor cocktail, all 5 days
  production of cells of each of the primary lineages: significantly reduced
[1]; [4]
  expression of CDX2 in the presence of insulin: decreased expression
  expression of PAX6 in the presence of insulin: decreased expression
  expression of SOX1 in the presence of insulin: decreased expression
  expression of SOX7 in the presence of insulin: decreased expression
  expression of WNT3A in the presence of insulin: decreased expression
  expression of brachyury in the presence of insulin: decreased expression
[1]; SU5402 5 μM plus insulin 10 μg/ml, brachyury, SOX1, SOX7, CDX2
  generalized differentiation under SU5402: inhibited strongly
[1]; high levels of insulin (10 μg/ml) in the media
  efficiency with which the hESCs differentiate to each of the 4 primary lineages: decrease

B1: activin A: growth factor used at 100 ng/ml as differentiation factor (protein, UniProt P08476 311-426, looked up)
Inhibin beta A chain: GLECDGKVNICCKKQFFVSFKDIGWNDWIIAPSGYHANYCEGECPSHIAGTSGSSLSFHSTVINHYRMRGHSPFANLKSCCVPTKLRPMSMLYYDDGQNIIKKDIQNMIVEECGCS
modifications: Inhibin beta A chain
notes: growth factor used at 100 ng/ml as differentiation factor
[1]; QPCR, no insulin, SU5402 5 μM
  expression of brachyury: elevated expression
[1]; [3]
  differentiation of hESCs to initial cell fate, as indicated by marker expression: induced initial fate commitment to mesendoderm
[1]; QPCR, no insulin, activin A 100 ng/ml
  PAX6 mRNA: induction
[1]; QPCR, no insulin, activin A 100 ng/ml, at 36 and 48 hours
  expression of WNT3A: elevated expression
[1]; [5]
  expression of GSC: elevated expression
  expression of SOX17: elevated expression
[1]; continued presence of activin A 100 ng/ml, indicated by SOX17 and GSC
  further differentiation of the mesendoderm: further differentiated to definitive endoderm
